For assay [1], the system named is Aphis fabae. Briefly: Insecticidal activity against third-instar nymph of Aphis fabae (black bean aphids) assessed as mortality after 72 hr by spray method. The assay is classed as functional. Particulars: for LC50: Aphis fabae, 72 h.
Assay [2] deals with Mythimna separata. Briefly: Insecticidal activity against third-instar larvae of Mythimna separata (Oriental armyworm) assessed as mortality after 72 hr by spray method. The assay is classed as functional.
The test system of assay [3] is Tetranychus cinnabarinus. Briefly: Acaricidal activity against adult Tetranychus cinnabarinus (carmine spider mite) assessed as mortality after 72 hr by immersion method. The assay is classed as functional.
For assay [4], the system named is Aphis fabae. Briefly: Insecticidal activity against third-instar nymph of Aphis fabae (black bean aphids) assessed as mortality at 4 mg/L after 72 hr by spray method. The assay is classed as functional.
Assay [5] concerns Tetranychus cinnabarinus. Briefly: Ovolarvicidal activity against […] Tetranychus cinnabarinus (carmine spider mite) assessed as reduction in hatched eggs measured 6 days after hatching by immersion method. The assay is classed as functional. The settings on record: for LC50: Tetranychus cinnabarinus, 144 h.
Assay [6] concerns Tetranychus cinnabarinus. Briefly: Acaricidal activity against adult Tetranychus cinnabarinus (carmine spider mite) assessed as mortality at 6.25 mg/L after 72 hr by immersion method. The assay is classed as functional.
In assay [7] the test system is Mythimna separata. Briefly: Insecticidal activity against third-instar larvae of Mythimna separata (Oriental armyworm) assessed as mortality at 25 mg/L after 72 hr by spray method. The assay is classed as functional, organism-based.
The test system of assay [8] is Mythimna separata. Briefly: Insecticidal activity against third-instar larvae of Mythimna separata (Oriental armyworm) assessed as mortality at 100 mg/L after 72 hr by spray method. Format: functional, organism-based.
In assay [9] the test system is Mythimna separata. Briefly: Insecticidal activity against third-instar larvae of Mythimna separata (Oriental armyworm) assessed as mortality at 1000 mg/L after 72 hr by spray method. Format: functional.
Assay [10] deals with Tetranychus cinnabarinus. Briefly: Acaricidal activity against adult Tetranychus cinnabarinus (carmine spider mite) assessed as mortality at 600 mg/L after 72 hr by immersion method. Format: functional.

Converted amounts (≈) assume the structure as drawn. The source made the active and inactive calls. No cut-off for these calls is given here.

As for `CCOC1=C(c2c(C)cc(C)cc2C)C(=O)OC12CCCC2`, the results for the LC50 in [1], in [2] and in [3] were above 500 µg/mL, above 1000 µg/mL and above 600 µg/mL, respectively.

On to `C=CC(=O)C1=C(c2c(C)cc(C)cc2C)C(=O)OC12CCCC2`, for which the LC50 is 5 µg/mL (≈ 16.1 µM) in [1], 26 µg/mL (≈ 83.8 µM) in assay [2] and 101 µg/mL (≈ 325 µM) in assay [3].

Turning to `Cc1cc(C)c(C2=C(OC(=O)CC(C)(C)C)C3(CCCC3)OC2=O)c(C)c1` [SPIROMESIFEN], the mortality at 4 µg/mL in assay [4] stood at 10.9%. In addition, the LC90 in assay [5] worked out at 31.07 µg/mL (≈ 83.9 µM). The LC50 in assay [5] was 4.32 µg/mL (≈ 11.7 µM); in [1] it was 5 µg/mL (≈ 13.5 µM); in [2], 101 µg/mL (≈ 273 µM); in assay [3] it was 6.26 µg/mL (≈ 16.9 µM).

In the case of `CCC(=O)C1=C(c2c(C)cc(C)cc2C)C(=O)OC12CCCC2`, the 50% lethal concentration (LC50) stood at 21 µg/mL (≈ 67.2 µM) in assay [1], 101 µg/mL (≈ 323 µM) in [2] and 6.26 µg/mL (≈ 20 µM) in assay [3].

As to `Cc1ccc(C(=O)C2=C(c3c(C)cc(C)cc3C)C(=O)OC23CCCC3)cc1`, the LC50 in [1] is above 500 µg/mL; in [2], above 1000 µg/mL; in assay [3], above 600 µg/mL.

As for `Cc1cc(C)c(C2=C(C(=O)c3ccc(F)cc3)C3(CCCC3)OC2=O)c(C)c1`, the figures for the LC50 in assay [1], in assay [2] and in assay [3] were 21 µg/mL (≈ 55.5 µM), 101 µg/mL (≈ 267 µM) and 101 µg/mL (≈ 267 µM), respectively.

Consider `COc1ccc(C(=O)C2=C(c3c(C)cc(C)cc3C)C(=O)OC23CCCC3)cc1`, for which, in [6], the mortality at 6.25 µg/mL was 55.2%. The results for the LC50 in [1], in [2] and in [3] were 21 µg/mL (≈ 53.8 µM), 26 µg/mL (≈ 66.6 µM) and 1 µg/mL (≈ 2.56 µM), respectively.

Turning to `Cc1cc(C)c(C2=C(C(=O)CC(C)(C)C)C3(CCCC3)OC2=O)c(C)c1`, the LC50 in assay [1] was determined as 5 µg/mL (≈ 14.1 µM); in assay [2], 101 µg/mL (≈ 285 µM); in [3] it was 26 µg/mL (≈ 73.3 µM).

Regarding `CO/N=C(/C(=O)C1=C(c2c(C)cc(C)cc2C)C(=O)OC12CCCC2)c1ccccc1`, the values for the median lethal concentration (LC50) in assay [1], in assay [2] and in [3] were 21 µg/mL (≈ 50.3 µM), 26 µg/mL (≈ 62.3 µM) and 26 µg/mL (≈ 62.3 µM), respectively.

Regarding `Cc1cc(C)c(C2=C(C(=O)c3ccccc3Cl)C3(CCCC3)OC2=O)c(C)c1`, the result in assay [7] was inactive. Besides, the result in [8] was Active. Further, the values for the LC50 in assay [1], in [2] and in [3] were 5 µg/mL (≈ 12.7 µM), 26 µg/mL (≈ 65.8 µM) and above 600 µg/mL, respectively.

Turning to `Cc1cc(C)c(C2=C(C(=O)C(c3ccc(Cl)cc3)C(C)C)C3(CCCC3)OC2=O)c(C)c1` (centres undefined), the LC50 in [1] is 101 µg/mL (≈ 224 µM); in assay [2], 401 µg/mL (≈ 889 µM); in [3], 101 µg/mL (≈ 224 µM).

On to `CCCC(=O)C1=C(c2c(C)cc(C)cc2C)C(=O)OC12CCCC2`, for which the mortality at 1000 µg/mL in assay [9] is 100%. Further, the mortality at 600 µg/mL in assay [10] was 96.6%. Moreover, the values for the LC50 in [1], in assay [2] and in [3] were 5 µg/mL (≈ 15.3 µM), 26 µg/mL (≈ 79.6 µM) and 6.26 µg/mL (≈ 19.2 µM), respectively.

As for `CCCCCCC(=O)C1=C(c2c(C)cc(C)cc2C)C(=O)OC12CCCC2`, the results for the LC50 in [1], in [2] and in assay [3] were 5 µg/mL (≈ 13.6 µM), 101 µg/mL (≈ 274 µM) and 26 µg/mL (≈ 70.6 µM), respectively.

Turning to `CCC(C)(C)C(=O)C1=C(c2c(C)cc(C)cc2C)C(=O)OC12CCCC2`, the values for the median lethal concentration (LC50) in assay [1], in assay [2] and in [3] were 21 µg/mL (≈ 59.2 µM), 101 µg/mL (≈ 285 µM) and 6.26 µg/mL (≈ 17.7 µM), respectively.

With `CCCCC(=O)C1=C(c2c(C)cc(C)cc2C)C(=O)OC12CCCC2`, the mortality at 4 µg/mL in [4] was 55.5%. The mortality at 1000 µg/mL in assay [9] came to 100%. The values for the LC50 in assay [1], in assay [2] and in assay [3] were 1 µg/mL (≈ 2.94 µM), 26 µg/mL (≈ 76.4 µM) and 6.26 µg/mL (≈ 18.4 µM), respectively.

In the case of `COC1=C(c2c(C)cc(C)cc2C)C(=O)OC12CCCC2`, the LC50 in assay [1] is above 500 µg/mL; in assay [2], above 1000 µg/mL; in assay [3], above 600 µg/mL.

For the compound `CCCCCC(=O)C1=C(c2c(C)cc(C)cc2C)C(=O)OC12CCCC2`, the mortality at 4 µg/mL in assay [4] amounted to 95.6%. Also, the result in assay [7] was inactive. In addition, the mortality at 1000 µg/mL in assay [9] amounted to 100%. In addition, the result in assay [8] was Active. Besides, the figures for the LC90 in assay [5] and in assay [1] were 56.08 µg/mL (≈ 158 µM) and 21.77 µg/mL (≈ 61.4 µM), respectively. Further, the LC50 in assay [5] is 11.8 µg/mL (≈ 33.3 µM); in assay [1], 1 µg/mL (≈ 2.82 µM); in [2], 26 µg/mL (≈ 73.3 µM); in assay [3] it was 6.26 µg/mL (≈ 17.7 µM).

For the compound `CCC(C)(C)C(=O)OC1=C(c2ccc(Cl)cc2Cl)C(=O)OC12CCCCC2` [SPIRODICLOFEN], in assay [4], the mortality at 4 µg/mL stood at 0%.

Turning to `CCOC(=O)OC1=C(c2cc(C)ccc2C)C(=O)N[C@]12CC[C@@H](OC)CC2` [SPIROTETRAMAT], the mortality at 4 µg/mL in assay [4] stood at 37.9%. Besides, in assay [1], the LC90 worked out at 13.56 µg/mL (≈ 36.3 µM) and the LC50 amounted to 5.06 µg/mL (≈ 13.5 µM).

`Cc1cc(C)c(C2=C(C(=O)/C=C/c3ccccc3)C3(CCCC3)OC2=O)c(C)c1`: the outcome in [7] was inactive. Moreover, in assay [8], the result was Active. Also, the LC50 was 5 µg/mL (≈ 12.9 µM) in assay [1], 26 µg/mL (≈ 67.3 µM) in [2] and 101 µg/mL (≈ 261 µM) in [3].

Regarding `CCc1c(C)cc(OC2=C(c3c(C)cc(C)cc3C)C(=O)OC23CCCC3)cc1C`, the results for the LC50 in [1], in assay [2] and in assay [3] were above 500 µg/mL, above 1000 µg/mL and above 600 µg/mL, respectively.

Regarding `Cc1cc(C)c(C2=C(C(=O)c3ccccc3C)C3(CCCC3)OC2=O)c(C)c1`, the LC50 worked out at 5 µg/mL (≈ 13.4 µM) in [1], 26 µg/mL (≈ 69.4 µM) in [2] and 101 µg/mL (≈ 270 µM) in assay [3].

On to `Cc1cc(C)c(C2=C(C(=O)C3C(C=C(Cl)Cl)C3(C)C)C3(CCCC3)OC2=O)c(C)c1` (centres undefined), for which the LC50 was 100 µg/mL (≈ 224 µM) in assay [1], 401 µg/mL (≈ 896 µM) in assay [2] and above 600 µg/mL in assay [3].

On to `C/C=C/C(=O)C1=C(c2c(C)cc(C)cc2C)C(=O)OC12CCCC2`, for which the LC50 was 21 µg/mL (≈ 64.7 µM) in [1], 101 µg/mL (≈ 311 µM) in assay [2] and 6.26 µg/mL (≈ 19.3 µM) in [3].
